Test results: US11266710B2, “Angio-3 for treatment of retinal angiogenic diseases” (SINGAPORE HEALTH SERVICES PTE LTD, priority 2017, dated 2022)

Experiments:
[1] = tested on: KIMBA mice (KIMBA-hVEGF Transgenic); assay: Retinal angiogenesis (FFA leakage) in KIMBA mice; type: in vivo, mouse; conditions: single IVT injection 1 μg in 1 μL
Excerpt: FIGS. 1A, 1B, 1C and 1D show the efficacy of a single IV dose of angio-3 in attenuating the retinal angiogenesis in KIMBA mice, which have over expression of human VEGF (KIMBA-hVEGF Transgenic). FIG. 1A is a schematic of the experimental design. FIG. 1B are images showing Fundus Fluorescein Angiography (FFA) images of baseline and weekly after post treatment. Digital color fundus photographs were taken using a MICRON IV comprehensive system for rodent retinal imaging (Phoenix Research Labs, Pleasanton, Calif.) after pupil dilatation with topical administration of 1% tropicamide (Alcon Laboratories, Inc., Fort Worth, Tex.) and 2.5% phenylephrine (Bausch and Lomb Pharmaceuticals, Inc., Tampa, Fla.) ophthalmic solutions. […] Readout is the leakage of retinal vascularization post-administration of the drug. n=6 eyes per batch; n=3 batches; Values are expressed as means±s.e.m., **P<0.01, *P<0.05, student's t-test. […] All imaging was performed with a laser-scanning confocal fluorescence microscope.
FIGS. 2A, 2B, 2C and 2D show the efficacy of a single IVT dose of angio-3 and Eylea (anti-VEGF), positive control in attenuating the retinal angiogenesis in KIMBA mice. […] Readout is the leakage of retinal vascularization post-administration of the drug. n=10 eyes per batch; n=2 batches; Values are expressed as means±s.e.m., **P<0.01, *P<0.05, student's t-test. […]

[2] = tested on: laser-induced CNV in Cynomolgus monkeys; assay: Laser-induced CNV model in Cynomolgus monkeys (wet AMD model); type: in vivo, Cynomolgus monkey; conditions: 2 mg Angio-3, 2 mg and 4 mg PeptideQ, 2 mg Eylea, single IVT
Protocol: FIGS. 25A, 25B, 25C, 25D, 25E, and 25F show the results of testing in a laser-induced chorodial neovascularization (CNV) model in Cynomolgus moneys developed as an experimental model of wet AMD. FIG. 25A is a schematic of the study design. FIG. 25B are representative fundus fluorescein angiography (FFA) images of all groups. FIG. 25C is a graph showing change in mean lesion grade of the eye in monkeys treated with a single dose 2 mg of Angio-3, dose 2 mg of anti-VEGF (Eylea), 2 mg of peptide (Q2) and 4 mg of peptide (Q4) and control. […] FIG. 25E is a graph of laser area quantified from the FFA images by ImageJ software. FIG. 25F are graphs of laser volume quantified from PS-OCT images by ImageJ software.
A laser-induced choroidal neovascularization (CNV) model was developed and validated in Cynomolgus monkeys as experimental model of wet AMD. […] The development of active CNV was assessed by fluorescein angiography, at Day 14 the baseline degree of neovascularization and leakiness were measured and the final fluorescein angiography assessment was performed on Day 28. Leakage area was quantified by ImageJ software. The laser volume was quantified by Spectralis-Heidelberg software using SD-OCT images.

With “Eylea: Eylea (anti-VEGF), positive control; clinical compound [reference compound]” as the substance, how does the “duration of effect in attenuating retinal angiogenesis post treatment” value [1] read?
Its value is 4 weeks.

And the “comparative efficacy between treatment groups” value [2]?
Its value is “superior efficacy as compared to test peptides”.
